# According to ChEMBL document CHEMBL1201862, “PubChem BioAssay data set” (2004):
#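 Five concentrations, 48 hours, 96-well plates. At the GI50, growth is halved.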 The source made the active and inactive calls. Rule as the data show it: active = GI50 up to about 1.1 µM and inactive = higher.
# Experiments:
# Assay in all cases: NCI-60 cell line screen, 48 h
# HCC 2998 = system: HCC 2998
# KM12 = system: KM12
# SF-539 = system: SF-539
# OVCAR-8 = system: OVCAR-8
# OVCAR-3 = system: OVCAR-3
# SW-620 = system: SW-620
# HCT-116 = system: HCT-116
# A549 = system: A549
# K562 = system: K562
# OVCAR-5 = system: OVCAR-5
# HT-29 = system: HT-29
# Malme-3M = system: Malme-3M
# SK-MEL-2 = system: SK-MEL-2
# SK-MEL-5 = system: SK-MEL-5
# NCI-H460 = system: NCI-H460
# UO-31 = system: UO-31
# HOP-92 = system: HOP-92
# RXF 393 = system: RXF 393
# MOLT-4 = system: MOLT-4
# UACC-257 = system: UACC-257
SMILES,GI50 (HCC 2998),GI50 (KM12),GI50 (SF-539),GI50 (OVCAR-8),GI50 (OVCAR-3),GI50 (SW-620),GI50 (HCT-116),GI50 (A549),GI50 (K562),GI50 (OVCAR-5),GI50 (HT-29),GI50 (Malme-3M),GI50 (SK-MEL-2),GI50 (SK-MEL-5),GI50 (NCI-H460),GI50 (UO-31),GI50 (HOP-92),GI50 (RXF 393),GI50 (MOLT-4),GI50 (UACC-257)
CC(=O)O[C@@]12CO[C@@H]1CC(O)[C@@]1(C)C(=O)[C@H](O)C3=C(C)C(O)C[C@@](O)(C(OC(=O)c4ccccc4)C12)C3(C)C (stereo not given in full),1.72 µM (inactive),0.558 µM (active),0.415 µM (active),3.13 µM (inactive),0.454 µM (active),0.448 µM (active),0.371 µM (active),3.81 µM (inactive),0.619 µM (active),3.94 µM (inactive),0.385 µM (active),2.54 µM (inactive),0.367 µM (active),6.58 µM (inactive),1.02 µM (active),46.1 µM (inactive),22.6 µM (inactive),25 µM (inactive),0.759 µM (active),0.684 µM (active)
COC(=O)c1ccc(/N=N/N(C)COc2ccc([N+](=O)[O-])cc2)cc1,> 74.5 µM (inactive),81.8 µM (inactive),88.7 µM (inactive),> 100 µM (inactive),> 100 µM (inactive),64.7 µM (inactive),> 100 µM (inactive),> 100 µM (inactive),50.7 µM (inactive),> 95.7 µM (inactive),> 94 µM (inactive),> 100 µM (inactive),> 80.9 µM (inactive),> 96.8 µM (inactive),15.5 µM (inactive),> 100 µM (inactive),65.3 µM (inactive),> 85.3 µM (inactive),> 100 µM (inactive),> 100 µM (inactive)
O=S(=O)(O)c1ccc(/N=N\c2ccc(/N=N/c3ccc(/C=C/c4ccc(/N=[N+](\[O-])c5ccc(/C=C/c6ccc(/N=N/c7ccc(/N=N/c8ccc(S(=O)(=O)O)cc8)c8ccccc78)cc6S(=O)(=O)O)c(S(=O)(=O)O)c5)cc4S(=O)(=O)O)c(S(=O)(=O)O)c3)c3ccccc23)cc1,> 100 µM (inactive),> 100 µM (inactive),> 84.7 µM (inactive),> 100 µM (inactive),99.1 µM (inactive),> 100 µM (inactive),> 100 µM (inactive),> 89.1 µM (inactive),> 100 µM (inactive),> 100 µM (inactive),> 100 µM (inactive),> 100 µM (inactive),> 100 µM (inactive),> 100 µM (inactive),> 100 µM (inactive),57.4 µM (inactive),> 81.1 µM (inactive),> 100 µM (inactive),> 100 µM (inactive),> 100 µM (inactive)
COc1cc(/C=C/C(=O)C(C)(C)C)cc(OC)c1OC,48.2 µM (inactive),24.8 µM (inactive),33.3 µM (inactive),33.4 µM (inactive),37.2 µM (inactive),32.7 µM (inactive),29.9 µM (inactive),32.2 µM (inactive),37.6 µM (inactive),> 100 µM (inactive),38 µM (inactive),71.8 µM (inactive),32.7 µM (inactive),42.3 µM (inactive),25.5 µM (inactive),> 100 µM (inactive),41.1 µM (inactive),28.4 µM (inactive),32.8 µM (inactive),28.1 µM (inactive)
CCOC(=O)c1ccc(N(CCOS(=O)(=O)c2ccc(C)cc2)CCOS(=O)(=O)c2ccc(C)cc2)cc1,> 100 µM (inactive),> 100 µM (inactive),< 0.01 µM (active),> 100 µM (inactive),> 100 µM (inactive),1.95 µM (inactive),27.3 µM (inactive),8.91 µM (inactive),> 100 µM (inactive),> 100 µM (inactive),> 100 µM (inactive),> 100 µM (inactive),19.8 µM (inactive),> 100 µM (inactive),4.66 µM (inactive),12.8 µM (inactive),> 100 µM (inactive),4.49 µM (inactive),2.7 µM (inactive),> 100 µM (inactive)
O=C(c1cccs1)c1nccc2c1cnc1ccccc12,> 100 µM (inactive),> 100 µM (inactive),> 100 µM (inactive),31.4 µM (inactive),> 100 µM (inactive),> 100 µM (inactive),90.8 µM (inactive),> 100 µM (inactive),> 100 µM (inactive),> 100 µM (inactive),> 100 µM (inactive),> 100 µM (inactive),> 100 µM (inactive),> 100 µM (inactive),> 100 µM (inactive),> 100 µM (inactive),36.6 µM (inactive),0.0113 µM (active),> 100 µM (inactive),> 100 µM (inactive)
COc1ccc2c(c1)CCN=C2Cc1cc(OC)c(OC)cc1CCCl,30.5 µM (inactive),33.3 µM (inactive),16.2 µM (inactive),> 100 µM (inactive),22.7 µM (inactive),> 100 µM (inactive),44.5 µM (inactive),96.4 µM (inactive),81.1 µM (inactive),17.3 µM (inactive),26.9 µM (inactive),27.4 µM (inactive),> 100 µM (inactive),17.5 µM (inactive),69.8 µM (inactive),29.2 µM (inactive),11.1 µM (inactive),24.9 µM (inactive),54.8 µM (inactive),45.4 µM (inactive)
C[C@]12CCC(=O)C(O)=C1CC[C@@H]1[C@@H]2CC[C@]2(C)C(=O)CC[C@@H]12 [FORMESTANE],> 100 µM (inactive),> 74.3 µM (inactive),> 100 µM (inactive),> 100 µM (inactive),> 100 µM (inactive),> 100 µM (inactive),> 93.1 µM (inactive),> 100 µM (inactive),> 89.9 µM (inactive),> 100 µM (inactive),> 92.7 µM (inactive),> 100 µM (inactive),> 100 µM (inactive),> 93.5 µM (inactive),> 100 µM (inactive),> 90.2 µM (inactive),> 81.8 µM (inactive),> 100 µM (inactive),> 75.9 µM (inactive),> 100 µM (inactive)
C=CCN1/C(=C(\C#N)c2nc3ccccc3[nH]2)Sc2c1nc[nH]c2=O,> 100 µM (inactive),> 100 µM (inactive),> 100 µM (inactive),> 100 µM (inactive),> 100 µM (inactive),> 100 µM (inactive),> 100 µM (inactive),> 100 µM (inactive),> 100 µM (inactive),> 100 µM (inactive),> 100 µM (inactive),> 100 µM (inactive),> 100 µM (inactive),> 100 µM (inactive),> 100 µM (inactive),> 100 µM (inactive),> 100 µM (inactive),6.68 µM (inactive),> 100 µM (inactive),> 100 µM (inactive)
